Experimental data published in patent US8853274B1, “Compositions and methods for targeting glioblastomas cells” (Vanderbilt University, priority 2011, dated 2014).

Columns and labels:
[1] = system: GBM43; assay: Growth inhibition at day 5, spheroid GBM culture; type: cell-based, human; settings: effects diminished after radiation
Description: (§1) (A) Known genetic features of selected GBM samples. WT: wild type; Amp: amplification; vIII: EGFRvIII; ND: not determined. (B) Spheroid GBM cultures were derived from freshly collected subcutaneous tumors and cultured for 2 weeks in stem cell media to enrich stem cell-like cancer cells. SF7225 was maintained as a primary spheroid culture. Growth inhibition at day 5 after treatment was determined as described in FIG. 5. *: p<0.01 by Student's t-test and growth inhibition ≧30% vs. the corresponding vehicle-treated groups. #: p<0.01 and >30% growth inhibition vs. the radiation only groups.
(§2) Work is now extended to a set of subcutaneous GBM xenografts (GBM) established by Dr. Jann Sarkaria and colleagues at Mayo Clinic. These samples are known to have mutational status of EGFR, p53 and PTEN and different radiosensitivity (FIG. 8A) (69-71). Because the cancer stem cell identity of CD133+ of the Mayo Clinic samples has not been validated by functional assays, the present inventor used the neurosphere culture that is widely utilized as a surrogate of GSCs for its ability to enrich GSC-like population (72, 73). Tumor response to GSI, FTI and/or radiation was determined as growth inhibition on day 5 after treatment, with a greater than 30% cell number reduction was defined as positive response mimicking the RECIST criteria (FIG. 8B). […] Therefore, the present inventor will continuously expand the GBM panel and determine the genomic features of all samples with focus on prevalent GBM-associated aberrations. On the basis of this molecularly characterized tumor panel, the present inventor will start to explore the potential biomarkers that may predict tumor response to the combination therapy of radiation, GSI and FTI by experiments described in herein.

[2] = system: GBM 44; assay: Growth inhibition at day 5, spheroid GBM culture; type: cell-based, human
Description: as §1, §2

[3] = system: HIF1α and HIF2α; assay: Immunoblot of HIF1α/HIF2α under hypoxia in T4302 CD133+ cells; type: cell-based, human; settings: 200 nM 24 h, then 2% O2 16 h
Description: (A) T4302 CD133+ cells were treated with 200 nM RO4929097 (GSI), and irradiated 4 hours later. Cells were cultured for two days and lysed for immunoblotting. (B) T4302 CD133+ cells were treated with 200 nM GSI or FTI±radiation. Cells were lysed 2 days after treatment. (C) T4302 CD133+ cells were treated with 200 nM GSI±FTI for 24 hours, and left under normoxia or in 2% O2 for 16 hours before being lysed for immunoblotting.

[4] = system: T4302 CD133+ cells; assay: Cell growth / viability on day 5 (CellTiter-Glo); type: cell-based, human; settings: 100 nM; with or without 3 Gy radiation
Description: (A, B) T4302 CD133+ cells were treated with 100 nM RO4929097 (GSI) and/or 100 nM tipifarnib (FTI) for 4 hours prior to 3 Gy radiation. (A) Cell growth on day 5 and (B) caspase 3/7 activation on day 3 were determined as described in FIG. 4. #: p<0.001 by one-way ANOVA, combo vs. single agents. (C) The effects of GSIs and FTI against growth of T4302 CD133− cells were determined as described in panel A. (D, E) T4302 CD133+ cells were treated with GSI, FTI, or a 1:1 mixture at different concentrations (ranging from 3000 nM to ˜0.5 nM, 1:3 dilution)±3 Gy radiation. Cell viability was determined at 5 days after treatment in comparison to vehicle-treated groups. […] (F) T4302 CD 133+ cells were treated by GSI±FTI with a 2-fold dilution. Neurospheres were countered on day 10, and normalized to the vehicle-treated group.
GSC sensitivity to drug(s) was primarily measured as inhibition of cell viability (survival). Cells were treated with drugs alone or in combination±3-Gy radiation at indicated concentrations. Cell viability is determined by CellTiter-Glo kit (Promega) after 5-day incubation. IC50 values are calculated by the GraphPad Prism5 software.

[5] = system: cleaved Notch1; assay: IHC staining for cleaved Notch1 in intracranial tumors; type: in vivo, Mice; settings: oral 30 mg/kg/day, 7 days
Description: (A, B) T4302 CD133+ cells were treated with 100 nM GSI±FTI for 48 hours and lysed in RIPA buffer. Mice bearing intracranial T4302 tumors were orally treated with 30 mg/kg/day GSI once a day (q.d.)±100 mg/kg/day FTI twice a day (b.i.d.) for 7 days. Brains were resected and homogenized in RIPA buffer. All lysates were blotted with an antibody specific to prelamin A. (B) Additional brains were fixed and resected for IHC staining for cleaved Notch1. (C) T4302 CD133+ cells were infected with lentivirus expressing firefly luciferase and selected with puromycin for two days. Athymic nude mice were intracranially implanted with 5,000 cells, maintained for 10 days, and treated with GSI±FTI for 20 days as described above. In a separated experiment, animals were treated by the same protocol, except they were given 2 doses of 4 Gy X-ray irradiation on day 11 and day 12, 4 hours after drug administration. These mice were on drugs for 30 days. The median survival was calculated by the GraphPad Prism 5 software. (D) Animals in the unirradiated experiment were tracked for their tumor progression by bioluminescence imaging. The Y axis is set in a log scale. (E,F) The survival curves of these two experiments are shown.

[6] = system: CD133+ GBM stem cells; assay: Growth inhibition within 5 days, panel of glioblastoma xenograft samples; type: cell-based, human; settings: 5-day period; in combination with 3 Gy radiation
Description: CD133+ cells were derived from multiple glioblastoma xenograft samples as indicated. The growth inhibitory effects by GSI and/or FTIs were determined as described in FIG. 5.
Therefore, effective killing of GBM stem cells may delay or even prevent tumor recurrence. […] In combination with radiation, GSIs or FTIs alone reduced cell numbers by ˜75%.

## CC(C)(C(=O)NCC(F)(F)C(F)(F)F)C(=O)N[C@@H]1C(=O)Nc2ccccc2-c2ccccc21 [RO4929097]
[1]
  tumor response (growth inhibition day 5), in words: moderate response
[2]; 0 Gy
  growth inhibition on day 5: 48±3.2%
[2]; 3 Gy
  growth inhibition on day 5: 65±3.3%
[3]
  HIF1α and HIF2α levels upon hypoxia stimulation: moderate reduction
[4]
  degree of growth inhibition after 5-day treatment, in words: weaker growth inhibition
[5]
  levels of cleaved Notch1 in intracranial tumors (IHC): decreased the levels of cleaved Notch1
[6]
  growth inhibition / reduction of cell numbers: ~75%
